Measurements: patent publication US11472769B2, “SSAO inhibitors and use thereof” (Eccogene (Shanghai) Co., Ltd., priority 2019, dated 2022)

Tests used:
Format in all cases: biochemical
recombinant hMAO-A = recombinant hMAO-A (Homo sapiens (Human), UniProt P21397); experiment: MAO-A activity assay (MAO-Glo assay kit); conditions: 40 μM substrate, 30 mins pre-incubation
Protocol: (§1) The biological activities of the compounds of the present application can be assessed with methods and assays known in the art. For example, the potency of the compounds of the present application can be evaluated with an SSAO Activity Assay. Briefly, compounds of the present application can be applied to recombinant hSSAO, hMAO-A, and hMAO-B isoforms and the amine oxidase activity of the enzymes are measured after the addition and subsequent oxidation of the luminogenic substrate (e.g., with the MAO-Glo assay kit from Promega). The IC50 can be calculated, for example, by fitting the dose response curve using a 4-parameter non-linear regression routine.
(§2) Amine oxidase activity of recombinant hSSAO, hMAO-A, and hMAO-B isoforms are measured using the MAO-Glo assay kit (Promega, V1402). Ten nL test compounds (with DMSO as vehicle, 0.1% v/v for hSSAO, hMAO-A and hMAO-B) were added into assay plates by Echo, and pre-incubated with 5 μL of enzyme for 30 mins at room temperature before the addition of 5 μL of luminogenic substrate. The substrate concentration is 40 μM for human recombinant SSAO, 40 μM for human recombinant MAO-A, and 4 μM for human recombinant MAO-B. The hSSAO and hMAO-A assays were conducted in the MAO-A reaction buffer in the kit, and the MAO-B assay was conducted in the MAO-B reaction buffer. Oxidation of the substrate was conducted for 1 hr, before the addition of detecting reagent according the manufacture's protocol. The IC50 value of the tested compounds was calculated by fitting the dose response curve using a 4-parameter non-linear regression routine.

recombinant hMAO-B = recombinant hMAO-B (Homo sapiens (Human), UniProt P27338); experiment: MAO-B activity assay (MAO-Glo assay kit); conditions: 4 μM substrate, 30 mins pre-incubation
Protocol: as §1, §2

recombinant hSSAO = recombinant hSSAO (Homo sapiens (Human), UniProt Q16853); experiment: SSAO Activity Assay (MAO-Glo assay kit); conditions: 40 μM substrate, 30 mins pre-incubation
Protocol: as §1, §2

recombinant hMAO-B, sequence (P27338 whole entry): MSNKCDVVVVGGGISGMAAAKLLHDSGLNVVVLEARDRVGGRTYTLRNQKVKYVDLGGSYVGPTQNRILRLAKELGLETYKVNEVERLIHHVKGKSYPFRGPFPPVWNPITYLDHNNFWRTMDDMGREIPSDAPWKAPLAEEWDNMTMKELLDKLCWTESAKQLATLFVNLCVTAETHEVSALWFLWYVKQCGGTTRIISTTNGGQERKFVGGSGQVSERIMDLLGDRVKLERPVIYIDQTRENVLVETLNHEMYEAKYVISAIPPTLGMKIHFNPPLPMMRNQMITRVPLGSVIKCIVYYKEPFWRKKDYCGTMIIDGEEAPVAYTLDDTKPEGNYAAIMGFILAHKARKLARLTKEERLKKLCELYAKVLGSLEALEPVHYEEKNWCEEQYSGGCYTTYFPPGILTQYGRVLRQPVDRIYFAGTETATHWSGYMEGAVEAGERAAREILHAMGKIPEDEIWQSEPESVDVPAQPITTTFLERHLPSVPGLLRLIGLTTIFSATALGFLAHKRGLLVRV
recombinant hMAO-A, sequence (P21397 whole entry, canonical isoform): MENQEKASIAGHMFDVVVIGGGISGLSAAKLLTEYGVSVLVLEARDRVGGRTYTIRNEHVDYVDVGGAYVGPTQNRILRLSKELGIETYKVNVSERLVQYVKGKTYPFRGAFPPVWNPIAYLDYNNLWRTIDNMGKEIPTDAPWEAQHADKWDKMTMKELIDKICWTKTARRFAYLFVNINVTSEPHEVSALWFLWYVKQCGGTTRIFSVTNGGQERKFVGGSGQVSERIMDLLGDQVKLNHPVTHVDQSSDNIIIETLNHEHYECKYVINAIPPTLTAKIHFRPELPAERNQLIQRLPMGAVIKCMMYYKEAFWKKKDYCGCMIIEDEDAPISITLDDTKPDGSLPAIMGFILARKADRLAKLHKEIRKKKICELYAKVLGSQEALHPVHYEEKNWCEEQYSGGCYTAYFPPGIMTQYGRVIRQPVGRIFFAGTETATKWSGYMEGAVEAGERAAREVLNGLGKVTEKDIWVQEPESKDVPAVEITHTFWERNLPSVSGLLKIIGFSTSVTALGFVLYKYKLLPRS
recombinant hSSAO, sequence (Q16853 whole entry): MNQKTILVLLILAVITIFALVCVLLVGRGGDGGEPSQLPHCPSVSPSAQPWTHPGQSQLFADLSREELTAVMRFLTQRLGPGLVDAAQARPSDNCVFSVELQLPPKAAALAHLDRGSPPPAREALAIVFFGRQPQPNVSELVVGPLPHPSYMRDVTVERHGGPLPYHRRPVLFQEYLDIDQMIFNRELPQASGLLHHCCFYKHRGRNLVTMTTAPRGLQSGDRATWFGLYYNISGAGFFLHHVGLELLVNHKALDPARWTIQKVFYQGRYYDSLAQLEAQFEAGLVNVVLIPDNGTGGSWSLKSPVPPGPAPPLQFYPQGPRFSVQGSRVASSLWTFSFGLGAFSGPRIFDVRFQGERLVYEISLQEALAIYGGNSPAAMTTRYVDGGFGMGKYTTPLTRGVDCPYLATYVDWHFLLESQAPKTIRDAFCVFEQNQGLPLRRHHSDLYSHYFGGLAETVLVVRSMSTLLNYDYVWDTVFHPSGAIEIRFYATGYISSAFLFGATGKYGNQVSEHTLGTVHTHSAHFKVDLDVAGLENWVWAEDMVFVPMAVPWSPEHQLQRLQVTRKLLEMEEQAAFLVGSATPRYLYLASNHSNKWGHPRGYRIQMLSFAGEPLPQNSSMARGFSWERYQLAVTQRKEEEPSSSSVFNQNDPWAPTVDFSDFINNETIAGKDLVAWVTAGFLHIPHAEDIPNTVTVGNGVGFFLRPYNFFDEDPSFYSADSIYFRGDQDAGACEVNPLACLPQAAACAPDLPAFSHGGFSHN

| Compound | IC50 (recombinant hMAO-A) | IC50 (recombinant hMAO-B) | IC50 (recombinant hSSAO) |
| --- | --- | --- | --- |
| CC1(CS(=O)(=O)c2ccc(OC/C(=C/F)CN)cc2)CCN(C(=O)C(C)(C)C)CC1 [Compound 54, (E)-1-(4-(((4-((2-(aminomethyl)-3-fluoroallyl)oxy)phenyl)sulfonyl)methyl)-4-methylpiperidin-1-yl)-2,2-dimethylpropan-1-one] | > 30 µM | > 30 µM | 0.02 to 0.1 µM |
| CC1(CS(=O)(=O)c2ccc(OC/C(=C/F)CN)cc2)CCN(C(=O)C2(C(F)(F)F)CC2)CC1 [Compound 55, (E)-(4-(((4-((2-(aminomethyl)-3-fluoroallyl)oxy)phenyl)sulfonyl)methyl)-4-methylpiperidin-1-yl)(1-(trifluoromethyl)cyclopropyl) methanone] | > 30 µM | 10 to 30 µM | 0.02 to 0.1 µM |
| CC1(CS(=O)(=O)c2ccc(OC/C(=C/F)CN)cc2)CCN(C(=O)C2(C)CCC2)CC1 [Compound 56, (E)-(4-(((4-((2-(aminomethyl)-3-fluoroallyl)oxy)phenyl)sulfonyl)methyl)-4-methylpiperidin-1-yl)(1-methylcyclobutyl)methanone] | > 30 µM | 10 to 30 µM | 0.02 to 0.1 µM |
| NC/C(=C\F)COc1ccc(S(=O)(=O)CC2CCN(C(=O)C3CCCC3)CC2)c(F)c1 [Compound 58] | > 30 µM | > 30 µM | 0.1 to 0.5 µM |
| NC/C(=C\F)COc1ccc(S(=O)(=O)CC2CCN(C(=O)CC(F)(F)F)CC2)c(F)c1 [Compound 59, (E)-1-(4-(((4-((2-(aminomethyl)-3-fluoroallyl)oxy)-2-fluorophenyl)sulfonyl)methyl)piperidin-1-yl)-3,3,3-trifluoropropan-1-one] | > 30 µM | > 30 µM | 0.02 to 0.1 µM |
| NC/C(=C\F)COc1ccc(S(=O)(=O)CC23CCC(C(=O)N4CCCC4)(CC2)CC3)cc1 [Compound 61, (E)-(4-(((4-((2-(aminomethyl)-3-fluoroallyl)oxy)phenyl)sulfonyl)methyl)bicyclo[2.2.2]octan-1-yl)(pyrrolidin-1-yl)methanone] | > 30 µM | 10 to 30 µM | < 0.02 µM |
| NC/C(=C\F)COc1ccc(S(=O)(=O)CC23CCC(C(=O)NCC4CC4)(CC2)CC3)cc1 [Compound 66, (E)-4-(((4-((2-(aminomethyl)-3-fluoroallyl)oxy)phenyl)sulfonyl)methyl)-N-(cyclopropylmethyl)bicyclo [2.2.2]octane-1-carboxamide] | > 30 µM | 10 to 30 µM | < 0.02 µM |
| CC1(NC(=O)C23CCC(CS(=O)(=O)c4ccc(OC/C(=C/F)CN)cc4)(CC2)CC3)CC1 [Compound 67, (E)-4-(((4-((2-(aminomethyl)-3-fluoroallyl)oxy)phenyl)sulfonyl)methyl)-N-(1-methylcyclopropyl)bicyclo[2.2.2] octane-1-carboxamide] | > 30 µM | > 30 µM | < 0.02 µM |
| CC(C)OCCNC(=O)C12CCC(CS(=O)(=O)c3ccc(OC/C(=C/F)CN)cc3)(CC1)CC2 [Compound 68, (E)-4-(((4-((2-(aminomethyl)-3-fluoroallyl)oxy)phenyl)sulfonyl)methyl)-N-(2-isopropoxyethyl)bicyclo[2.2.2] octane-1-carboxamide] | > 30 µM | > 30 µM | < 0.02 µM |
| NC/C(=C\F)COc1ccc(S(=O)(=O)CC23CCC(C(=O)NC4CC(F)(F)C4)(CC2)CC3)cc1 [Compound 69, (E)-4-(((4-((2-(aminomethyl)-3-fluoroallyl)oxy)phenyl)sulfonyl)methyl)-N-(3,3-difluorocyclobutyl)bicyclo[2.2.2] octane-1-carboxamide] | > 30 µM | 10 to 30 µM | < 0.02 µM |
| NC/C(=C\F)COc1ccc(S(=O)(=O)CC23CCC(C(=O)N4CCC4)(CC2)CC3)cc1 [Compound 71] | > 30 µM | 10 to 30 µM | < 0.02 µM |
| NC/C(=C\F)COc1ccc(S(=O)(=O)CC23CCC(C(=O)N4CC(F)(F)C4)(CC2)CC3)cc1 [Compound 72] | > 30 µM | > 30 µM | < 0.02 µM |
| CN(C(=O)C12CCC(CS(=O)(=O)c3ccc(OC/C(=C/F)CN)cc3)(CC1)CC2)C1CC1 [Compound 73, (E)-4-(((4-((2-(aminomethyl)-3-fluoroallyl)oxy)phenyl)sulfonyl)methyl)-N-cyclopropyl-N-methylbicyclo[2.2.2]octane-1-carboxamide] | > 30 µM | > 30 µM | 0.02 to 0.1 µM |
| CCN(CC)C(=O)C12CCC(CS(=O)(=O)c3ccc(OC/C(=C/F)CN)cc3)(CC1)CC2 [Compound 74, (E)-4-(((4-((2-(aminomethyl)-3-fluoroallyl)oxy)phenyl)sulfonyl)methyl)-N,N-diethylbicyclo[2.2.2] octane-1-carboxamide] | > 30 µM | > 30 µM | 0.02 to 0.1 µM |
| NC/C(=C\F)COc1ccc(S(=O)(=O)CC23CCC(C(=O)NC4CC4)(CC2)CC3)cc1 [Compound 75, (E)-4-(((4-((2-(aminomethyl)-3-fluoroallyl)oxy)phenyl)sulfonyl)methyl)-N-cyclopropylbicyclo[2.2.2]octane-1-carboxamide] | > 30 µM | 10 to 30 µM | < 0.02 µM |
| CC(C)(C)C(=O)NC12CC(CS(=O)(=O)c3ccc(OC/C(=C/F)CN)cc3)(C1)C2 [Compound 77, (E)-N-(3-(((4-((2-(aminomethyl)-3-fluoroallyl)oxy)phenyl)sulfonyl)methyl)bicyclo[1.1.1]pentan-1-yl)pivalamide] | > 30 µM | > 30 µM | < 0.02 µM |
| CC(C)C(=O)NC12CCC(CS(=O)(=O)c3ccc(OC/C(=C/F)CN)cc3)(CC1)CC2 [Compound 80, (E)-N-(4-(((4-((2-(aminomethyl)-3-fluoroallyl)oxy)phenyl)sulfonyl)methyl)bicyclo[2.2.2]octan-1-yl)isobutyramide] | > 30 µM | 10 to 30 µM | < 0.02 µM |
| NC/C(=C\F)COc1ccc(S(=O)(=O)CC23CCC(NS(=O)(=O)C4CC4)(CC2)CC3)cc1 [Compound 81, (E)-N-(4-(((4-((2-(aminomethyl)-3-fluoroallyl)oxy)phenyl)sulfonyl)methyl)bicyclo[2.2.2]octan-1-yl)cyclopropanesulfonamide] | > 30 µM | > 30 µM | < 0.02 µM |
| NC/C(=C\F)COc1ccc(S(=O)(=O)CC23CCC(NC(=O)C4CC4(F)F)(CC2)CC3)cc1 (stereo not drawn) [Compound 84, (E)-N-(4-(((4-((2-(aminomethyl)-3-fluoroallyl)oxy)phenyl)sulfonyl)methyl)bicyclo[2.2.2]octan-1-yl)-2,2-difluorocyclopropane-1-carboxamide] | > 30 µM | 10 to 30 µM | < 0.02 µM |
| NC/C(=C\F)COc1ccc(S(=O)(=O)CC23CCC(NC(=O)C4(C(F)(F)F)CC4)(CC2)CC3)cc1 [Compound 85, (E)-N-(4-(((4-((2-(aminomethyl)-3-fluoroallyl)oxy)phenyl)sulfonyl)methyl)bicyclo[2.2.2]octan-1-yl)-1-(trifluoromethyl)cyclopropane-1-carboxamide] | > 30 µM | 10 to 30 µM | 0.02 to 0.1 µM |
| NC/C(=C\F)COc1ccc(S(=O)(=O)CC23CCC(NC(=O)C4(F)CC4)(CC2)CC3)cc1 [Compound 86, (E)-N-(4-(((4-((2-(aminomethyl)-3-fluoroallyl)oxy)phenyl)sulfonyl)methyl)bicyclo[2.2.2]octan-1-yl)-1-fluorocyclopropane-1-carboxamide] | > 30 µM | < 10 µM | < 0.02 µM |
| CC(C)(C)C(=O)NC12CCC(CS(=O)(=O)c3ccc(OC/C(=C/F)CN)cc3)(CC1)CC2 [Compound 90, (E)-N-(4-(((4-((2-(aminomethyl)-3-fluoroallyl)oxy)phenyl)sulfonyl)methyl)bicyclo[2.2.2]octan-1-yl)pivalamide] | > 30 µM | 10 to 30 µM | < 0.02 µM |
| NC/C(=C\F)COc1ccc(S(=O)(=O)CC23CCC(NC(=O)C4CCC4)(CC2)CC3)cc1 [Compound 92, (E)-N-(4-(((4-((2-(aminomethyl)-3-fluoroallyl)oxy)phenyl)sulfonyl)methyl)bicyclo[2.2.2]octan-1-yl)cyclobutanecarboxamide] | > 30 µM | 10 to 30 µM | < 0.02 µM |
| NC/C(=C\F)COc1ccc(S(=O)(=O)CCN2CCCCC2=O)cc1 [Compound 107, (E)-1-(2-((4-((2-(aminomethyl)-3-fluoroallyl)oxy)phenyl)sulfonyl)ethyl) piperidin-2-one] | > 30 µM | < 10 µM | < 0.02 µM |
| CC(CN1C(=O)CCC1(C)C)CS(=O)(=O)c1ccc(OC/C(=C/F)CN)cc1 (stereo not drawn) [Compound 111, (E)-1-(3-((4-((2-(aminomethyl)-3-fluoroallyl)oxy)phenyl)sulfonyl)-2-methylpropyl)-5,5-dimethylpyrrolidin-2-one] | > 30 µM | 10 to 30 µM | 0.02 to 0.1 µM |
